What follows are molecules tested against Histone deacetylase 2 (Homo sapiens) (UniProt Q92769) (assay: Inhibition of human recombinant HDAC2).
Chain of Histone deacetylase 2 (Homo sapiens) (Q92769 whole entry, looked up): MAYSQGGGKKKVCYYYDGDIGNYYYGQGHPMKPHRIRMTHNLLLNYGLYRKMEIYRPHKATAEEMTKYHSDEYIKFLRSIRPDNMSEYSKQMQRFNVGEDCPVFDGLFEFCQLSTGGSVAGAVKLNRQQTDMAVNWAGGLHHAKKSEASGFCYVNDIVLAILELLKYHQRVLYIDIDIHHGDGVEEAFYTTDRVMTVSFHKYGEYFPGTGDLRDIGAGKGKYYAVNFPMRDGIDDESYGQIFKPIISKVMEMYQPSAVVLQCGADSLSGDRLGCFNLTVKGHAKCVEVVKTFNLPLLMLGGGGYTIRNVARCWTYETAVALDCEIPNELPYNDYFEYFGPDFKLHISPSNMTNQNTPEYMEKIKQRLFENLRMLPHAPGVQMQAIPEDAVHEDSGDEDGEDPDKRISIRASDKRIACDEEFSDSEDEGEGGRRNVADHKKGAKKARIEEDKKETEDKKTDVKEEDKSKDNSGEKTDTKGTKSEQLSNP

Row | IC50 [nM] | Compound
1 | 20 | CCN1CCCC(n2c(-c3cccc(/C=C/C(=O)NO)c3)nc3ccccc32)C1 (racemic) [(+/-)-3-(3-(1-(1-ethylpiperidin-3-yl)-1H-benzo[d]imidazol-2-yl)phenyl)-N-hydroxyacrylamide]
2 | 31 | CCN(CC)CCn1c(-c2cccc(/C=C/C(=O)NO)c2)nc2ccccc21 [3-(3-(1-(2-(diethylamino)ethyl)-1H-benzo[d]imidazol-2-yl)phenyl)-N-hydroxyacrylamide]
3 | 40 | CC(C)N(CCn1c(-c2cccc(/C=C/C(=O)NO)c2)nc2ccccc21)C(C)C [3-(3-(1-(2-(diisopropylamino)ethyl)-1H-benzo[d]imidazol-2-yl)phenyl)-N-hydroxyacrylamide]
4 | 63 | CN(C)CCn1c(-c2cccc(/C=C/C(=O)NO)c2)nc2ccccc21 [3-(3-(1-(2-(dimethylamino)ethyl)-1H-benzo[d]imidazol-2-yl)phenyl)-N-hydroxyacrylamide]
5 | 50 | O=C(/C=C/c1cccc(-c2nc3ccccc3n2Cc2ccccc2)c1)NO [3-(3-(1-benzyl-1H-benzo[d]imidazol-2-yl)phenyl)-N-hydroxyacrylamide]
6 | 100 | O=C(/C=C/c1cccc(-c2nc3ccccc3[nH]2)c1)NO [3-(3-(1H-benzo[d]imidazol-2-yl)phenyl)-N-hydroxyacrylamide]
7 | 79 | Cc1nc(C)n(CCc2ccccc2)c1-c1cccc(/C=C/C(=O)NO)c1 [3-(3-(2,4-dimethyl-1-phenethyl-1H-imidazol-5-yl)phenyl)-N-hydroxyacrylamide]
8 | 40 | Cc1nc(Cc2ccccc2)n(CCc2ccccc2)c1-c1cccc(/C=C/C(=O)NO)c1 [3-(3-(2-benzyl-4-methyl-1-phenethyl-1H-imidazol-5-yl)phenyl)-N-hydroxyacrylamide]
9 | 31 | Cc1nc(-c2cccc(/C=C/C(=O)NO)c2)n(CCN2CCOCC2)c1C [3-(3-(4,5-dimethyl-1-(2-morpholinoethyl)-1H-imidazol-2-yl)phenyl)-N-hydroxyacrylamide]
10 | 7.9 | Cc1nc(-c2cccc(/C=C/C(=O)NO)c2)n(CCc2ccccc2)c1C [3-(3-(4,5-dimethyl-1-phenethyl-1H-imidazol-2-yl)phenyl)-N-hydroxyacrylamide]
11 | 12 | Cc1c(Cc2ccccc2)nc(-c2cccc(/C=C/C(=O)NO)c2)n1CCN1CCOCC1 [3-(3-(4-benzyl-5-methyl-1-(2-morpholinoethyl)-1H-imidazol-2-yl)phenyl)-N-hydroxyacrylamide]
12 | 7.9 | Cc1c(Cc2ccccc2)nc(-c2cccc(/C=C/C(=O)NO)c2)n1CCc1ccccc1 [3-(3-(4-benzyl-5-methyl-1-phenethyl-1H-imidazol-2-yl)phenyl)-N-hydroxyacrylamide]
13 | 10 | Cc1nc(-c2cccc(/C=C/C(=O)NO)c2)n(CCN2CCOCC2)c1Cc1ccccc1 [3-(3-(5-benzyl-4-methyl-1-(2-morpholinoethyl)-1H-imidazol-2-yl)phenyl)-N-hydroxyacrylamide]
14 | 5 | Cc1nc(-c2cccc(/C=C/C(=O)NO)c2)n(CCc2ccccc2)c1Cc1ccccc1 [3-(3-(5-benzyl-4-methyl-1-phenethyl-1H-imidazol-2-yl)phenyl)-N-hydroxyacrylamide]
15 | 10 | CCN1CCC[C@@H](n2c(-c3cccc(/C=C/C(=O)NO)c3)nc3ccccc32)C1 [(R)-3-(3-(1-(1-ethylpiperidin-3-yl)-1H-benzo[d]imidazol-2-yl)phenyl)-N-hydroxyacrylamide]
16 | 12 | CCN1CCC[C@@H](n2c(-c3cccc(/C=C/C(=O)NO)c3)nc(C)c2C)C1 [(R)-3-(3-(1-(1-ethylpiperidin-3-yl)-4,5-dimethyl-1H-imidazol-2-yl)phenyl)-N-hydroxyacrylamide]
17 | 7.9 | CCN1CCC[C@@H](n2c(-c3cccc(/C=C/C(=O)NO)c3)nc(C)c2-c2ccccc2)C1 [(R)-3-(3-(1-(1-ethylpiperidin-3-yl)-4-methyl-5-phenyl-1H-imidazol-2-yl)phenyl)-N-hydroxyacrylamide]
18 | 120 | CCN1CCC[C@@H](n2c(Cc3ccccc3)nc(C)c2-c2cccc(/C=C/C(=O)NO)c2)C1 [(R)-3-(3-(2-benzyl-1-(1-ethylpiperidin-3-yl)-4-methyl-1H-imidazol-5-yl)phenyl)-N-hydroxyacrylamide]
19 | 10 | CCN1CCC[C@@H](n2c(-c3cccc(/C=C/C(=O)NO)c3)nc(Cc3ccccc3)c2C)C1 [(R)-3-(3-(4-benzyl-1-(1-ethylpiperidin-3-yl)-5-methyl-1H-imidazol-2-yl)phenyl)-N-hydroxyacrylamide]
20 | 6.3 | Cc1c(Cc2ccccc2)nc(-c2cccc(/C=C/C(=O)NO)c2)n1[C@@H]1CCCN(C)C1 [(R)-3-(3-(4-benzyl-5-methyl-1-(1-methylpiperidin-3-yl)-1H-imidazol-2-yl)phenyl)-N-hydroxyacrylamide]
21 | 6.3 | Cc1nc(-c2cccc(/C=C/C(=O)NO)c2)n([C@@H]2CCCN(C(C)C)C2)c1-c1ccccc1 [(R)-N-hydroxy-3-(3-(1-(1-isopropylpiperidin-3-yl)-4-methyl-5-phenyl-1H-imidazol-2-yl)phenyl)acrylamide]

Row | IC50 [nM] | Compound
22 | 5 | Cc1c(-c2ccccc2)nc(-c2cccc(/C=C/C(=O)NO)c2)n1[C@@H]1CCCN(C(C)C)C1 [(R)-N-hydroxy-3-(3-(1-(1-isopropylpiperidin-3-yl)-5-methyl-4-phenyl-1H-imidazol-2-yl)phenyl)acrylamide]
23 | 10 | CN1CCC[C@@H](n2c(-c3cccc(/C=C/C(=O)NO)c3)nc3ccccc32)C1 [(R)-N-hydroxy-3-(3-(1-(1-methylpiperidin-3-yl)-1H-benzo[d]imidazol-2-yl)phenyl)acrylamide]
24 | 25 | C[C@H](c1ccccc1)n1c(-c2cccc(/C=C/C(=O)NO)c2)nc2ccccc21 [(R)-N-hydroxy-3-(3-(1-(1-phenylethyl)-1H-benzo[d]imidazol-2-yl)phenyl)acrylamide]
25 | 12 | O=C(/C=C/c1cccc(-c2nc3ccccc3n2[C@@H]2CCCNC2)c1)NO [(R)-N-hydroxy-3-(3-(1-(piperidin-3-yl)-1H-benzo[d]imidazol-2-yl)phenyl)acrylamide]
26 | 10 | Cc1nc(-c2cccc(/C=C/C(=O)NO)c2)n([C@@H]2CCCN(C)C2)c1-c1ccccc1 [(R)-N-hydroxy-3-(3-(4-methyl-1-(1-methylpiperidin-3-yl)-5-phenyl-1H-imidazol-2-yl)phenyl)acrylamide]
27 | 5 | Cc1c(-c2ccccc2)nc(-c2cccc(/C=C/C(=O)NO)c2)n1[C@@H]1CCCN(C)C1 [(R)-N-hydroxy-3-(3-(5-methyl-1-(1-methylpiperidin-3-yl)-4-phenyl-1H-imidazol-2-yl)phenyl)acrylamide]
28 | 31 | CCN1CCC[C@H](n2c(-c3cccc(/C=C/C(=O)NO)c3)nc3ccccc32)C1 [(S)-3-(3-(1-(1-ethylpiperidin-3-yl)-1H-benzo[d]imidazol-2-yl)phenyl)-N-hydroxyacrylamide]
29 | 10 | O=C(/C=C/c1cccc(-c2nc3ccccc3n2CCN2CCCCC2)c1)NO [N-hydroxy-3-(3-(1-(2-(piperidin-1-yl)ethyl)-1H-benzo[d]imidazol-2-yl)phenyl)acrylamide]
30 | 16 | O=C(/C=C/c1cccc(-c2nc3ccccc3n2CCN2CCCC2)c1)NO [N-hydroxy-3-(3-(1-(2-(pyrrolidin-1-yl)ethyl)-1H-benzo[d]imidazol-2-yl)phenyl)acrylamide]
31 | 50 | O=C(/C=C/c1cccc(-c2nc3ccccc3n2CCN2CCOCC2)c1)NO [N-hydroxy-3-(3-(1-(2-morpholinoethyl)-1H-benzo[d]imidazol-2-yl)phenyl)acrylamide]
32 | 12 | O=C(/C=C/c1cccc(-c2nc3ccccc3n2CCCc2ccccc2)c1)NO [N-hydroxy-3-(3-(1-(3-phenylpropyl)-1H-benzo[d]imidazol-2-yl)phenyl)acrylamide]
33 | 40 | COc1ccc(-n2c(-c3cccc(/C=C/C(=O)NO)c3)nc3ccccc32)cc1 [N-hydroxy-3-(3-(1-(4-methoxyphenyl)-1H-benzo[d]imidazol-2-yl)phenyl)acrylamide]
34 | 160 | O=C(/C=C/c1cccc(-c2nc3ccccc3n2CC2CCNCC2)c1)NO [N-hydroxy-3-(3-(1-(piperidin-4-ylmethyl)-1H-benzo[d]imidazol-2-yl)phenyl)acrylamide]
35 | 79 | CC(C)n1c(-c2cccc(/C=C/C(=O)NO)c2)nc2ccccc21 [N-hydroxy-3-(3-(1-isopropyl-1H-benzo[d]imidazol-2-yl)phenyl)acrylamide]
36 | 120 | Cn1c(-c2cccc(/C=C/C(=O)NO)c2)nc2ccccc21 [N-hydroxy-3-(3-(1-methyl-1H-benzo[d]imidazol-2-yl)phenyl)acrylamide]
37 | 7.9 | O=C(/C=C/c1cccc(-c2nc3ccccc3n2CCc2ccccc2)c1)NO [N-hydroxy-3-(3-(1-phenethyl-1H-benzo[d]imidazol-2-yl)phenyl)acrylamide]
38 | 63 | O=C(/C=C/c1cccc(-c2nc3ccccc3n2-c2ccccc2)c1)NO [N-hydroxy-3-(3-(1-phenyl-1H-benzo[d]imidazol-2-yl)phenyl)acrylamide]
39 | 31 | Cc1nc(-c2cccc(/C=C/C(=O)NO)c2)n(CCN2CCOCC2)c1-c1ccccc1 [N-hydroxy-3-(3-(4-methyl-1-(2-morpholinoethyl)-5-phenyl-1H-imidazol-2-yl)phenyl)acrylamide]
40 | 7.9 | Cc1nc(-c2cccc(/C=C/C(=O)NO)c2)n(CCc2ccccc2)c1-c1ccccc1 [N-hydroxy-3-(3-(4-methyl-1-phenethyl-5-phenyl-1H-imidazol-2-yl)phenyl)acrylamide]
41 | 10 | Cc1c(-c2ccccc2)nc(-c2cccc(/C=C/C(=O)NO)c2)n1CCN1CCOCC1 [N-hydroxy-3-(3-(5-methyl-1-(2-morpholinoethyl)-4-phenyl-1H-imidazol-2-yl)phenyl)acrylamide]
42 | 5 | Cc1c(-c2ccccc2)nc(-c2cccc(/C=C/C(=O)NO)c2)n1CCc1ccccc1 [N-hydroxy-3-(3-(5-methyl-1-phenethyl-4-phenyl-1H-imidazol-2-yl)phenyl)acrylamide]
